Values quoted from earlier work, collected in PMC7347157 (Chemical communications (Cambridge, England), 2019).

Details: unlabeled dienophile

OC1CC/C=C/CCC1 (stereo not drawn) [5-hydroxy-trans-cyclooctene]
log P: 1.11

trans-5-oxocene [compound 4]
log P: 0.51
